The data set can be described thus: Human HepG2 cell viability assay in 384 well format. It is filed as toxicity, cell-based. Particulars: HepG2 cells, read-out: Inhibition. More on the design: dose 125 nL, time 70.5 hour; cytotoxicity at 70.5 h: concentration not given beside the values.
Turning to `O=C(c1ccsc1)N1C[C@H]2CN(Cc3cccc(F)c3)C(=O)[C@H]2C1`, the cytotoxicity at 70.5 h was -1.45%.
As for `COCCC(=O)NCC1Cn2nnc(-c3cccc(F)c3)c2CO1` (stereo unspecified), the cytotoxicity at 70.5 h is -0.67%.
The value for `Cn1ccnc1CN1CC2(CCN(Cc3ccncc3)C2)C1` was -0.993%.
For the compound `Cc1nc(-c2nc(C(=O)N3CCOCC3)c3ccccn23)cn1C(C)C`, the cytotoxicity at 70.5 h was -5.18%.
As for `Cc1cccc(CN2C[C@@H]3CN(C(=O)c4cnccn4)C[C@@H]3C2=O)c1`, the figure is -2.3%.
In the case of `O=C(c1ccoc1)N1CCC2(C1)CN(c1nccs1)C2`, the cytotoxicity at 70.5 h was -2.55%.
Regarding `Cc1ccc2c(c1)CCC21CCN(CCO)CC1`, the cytotoxicity at 70.5 h is -1.71%.
On to `COCC(=O)N1C[C@H]2CC[C@@]3(N=C(c4ccccc4)NC3=O)[C@H]2C1`, for which the cytotoxicity at 70.5 h was -3.3%.
As for `O=C(N1CCCC1)N1C[C@H]2CC[C@@]3(N=C(c4ccccc4)NC3=O)[C@H]2C1`, the figure is 12.6%.
As for `Cc1cnc(C(=O)N2C[C@@H]3[C@@H](C2)OCC(=O)N3CC2CCCC2)cn1`, the figure is 15.5%; as for `O=C(C1CCOC1)N1CCc2ncnc(-c3cccnc3)c2CC1` (stereo unspecified), 15.9%; as for `CC(=O)N1[C@H](Cn2cncn2)C[C@@H]2CN(C(=O)NC3CC3)CC[C@@H]21`, 5.13%.
The value for `O=C(C1CCOC1)N1CCc2ncnc(C3CC3)c2CC1` (stereo unspecified) was 0.686%.
As for `O=C(c1cnccn1)N1C[C@@H]2[C@@H](C1)OCC(=O)N2CC1CCCC1`, the cytotoxicity at 70.5 h came to 1.12%.
The value for `CN1CCN(Cc2cn3c(n2)CN(C(=O)N2CCCC2)CC3)CC1` was 0.892%; that for `CCN1C[C@H]2CCN(c3ncccn3)CC[C@H]2S1(=O)=O` was 1.89%.
The value for `O=C(c1ccco1)N1CCCC2(CN(Cc3ccoc3)CCO2)C1` (stereo unspecified) was -0.421%.
With `O=C([C@H]1COC[C@H]2CN(C3CCOCC3)C[C@H]21)N1CCCCO1`, the cytotoxicity at 70.5 h is 4.24%.
Turning to `O=C(NCC1CC1)C1CN(C(=O)Cc2cccs2)CC12CCOCC2` (stereo unspecified), the cytotoxicity at 70.5 h was 1.89%.
Turning to `CCOCC1CN(C(=O)c2cccs2)Cc2nn(C)cc21` (stereo unspecified), the cytotoxicity at 70.5 h was -2.33%.
As to `Cc1cnc(C(=O)N2C[C@H]3CCCC(OCc4cccnc4)[C@H]3C2)cn1` (stereo partly specified), the cytotoxicity at 70.5 h was -3.45%.
The value for `COCc1cnc2n1CCN(C(=O)C1=CCCCC1)C2C` (stereo unspecified) was 17.6%.
Turning to `COc1ncccc1C(=O)N1CC[C@H]2C[C@@H](C)O[C@@H]2C1`, the cytotoxicity at 70.5 h is -21.5%.
The value for `O=C1CCC2(CCN(c3ncc(F)cn3)CC2)N1CCN1CCCC1` was 25.9%; that for `O=C1NC2(CCN(C(=O)Cc3ccsc3)CC2)CC1c1ccncc1` (stereo unspecified) was -4.21%; that for `CN(C)C(=O)NC1COC2(CCN(Cc3nccn3C)CC2)C1` (stereo unspecified) was 2.06%.
As for `O=C(c1ccc2[nH]ccc2c1)N1CCn2cnc(COCC3CC3)c2C1`, the figure is -4.35%; as for `CCC1=N[C@@]2(CC[C@@H]3CN(S(=O)(=O)N(C)C)C[C@@H]32)C(=O)N1CC(C)C`, -3.81%; as for `CCc1ccc(NC(=O)N2C[C@H]3C[C@H](C(=O)NC)[C@@H](C2)O3)cc1`, 3.53%.
The value for `CN(C)Cc1nn(C)c2c1CCN(S(=O)(=O)c1cccs1)C2` was 1.38%; that for `CCO[C@@H]1CO[C@@]2(CCCN(C(=O)COc3ccccc3OC)C2)C1` was -9.81%.
As for `Cn1ncc2c1C(COCC1CC1)CN(Cc1nccs1)C2` (stereo unspecified), the cytotoxicity at 70.5 h turned out to be 6.16%.
The value for `CO[C@@H]1CC[C@H]2[C@H]1OCCN2C(=O)c1ccc(C)o1` was 46.9%; that for `Cc1ccsc1C(=O)N1CC(C(=O)NCC2CC2)C2(CCOCC2)C1` (stereo unspecified) was 7.19%; that for `Cc1ccsc1C(=O)N1CC(C(=O)N2CCOCC2)C2(CCOCC2)C1` (stereo unspecified) was 24.8%.
As for `O=C(c1cscn1)N1C[C@@H]2C[C@@H](c3nnc(C4CC4)o3)O[C@@H]2C1`, the figure is -8.28%; as for `Cc1ncsc1CN1CC[C@H]2C[C@H](c3ccncn3)O[C@@H]2C1`, -12.4%.
For `O=C(CC1CC1)N1CCn2cc(Cn3cncn3)nc2C1`, the cytotoxicity at 70.5 h is -18.5%.
The value for `COCC(=O)N1Cc2cn(C)nc2C(COc2cccnc2)C1` (stereo unspecified) was 9.02%; that for `CCOc1cc(C(=O)n2cccn2)cc(OCC)c1OCC` was -6.27%; that for `Cc1c(Br)cnn1CC(=O)Nc1ccon1` was -7.55%.
The value for `Cc1cc(NC(=O)Cn2ncc(Br)c2C)no1` was -2.58%; that for `O=C(c1n[nH]cc1Cl)N1CCSCC1` was -9.46%; that for `CCCN1C(=O)c2ccccc2C1OC` (stereo unspecified) was -6.48%.
For `CNC(=O)C1CCN(S(C)(=O)=O)CC1`, the cytotoxicity at 70.5 h was -10.2%.
Regarding `CNC(=O)[C@H]1C[C@@H]2CN(S(=O)(=O)Cc3ccccc3)C[C@@H]2N1C`, the cytotoxicity at 70.5 h is -3.87%.
Turning to `COc1ccc(CN2CCOC3(CCCN(C(C)=O)C3)C2)cc1` (stereo unspecified), the cytotoxicity at 70.5 h is -1.06%.
As for `Cc1cnc(N2CC3(CCN(C(=O)c4cccnc4)C3)C2)nc1`, the figure is -4.83%.
As for `Cc1cccc(CN2C[C@@H]3CN(C(=O)c4ccsc4)C[C@@H]3C2=O)n1`, the figure is -2.24%.
The value for `O=C([C@@H]1COC[C@H]2CN(C3CCOCC3)C[C@H]21)N1CCCO1` was 14.5%.
As for `O=C1CC2(CCCCN2C(=O)c2ccco2)CN1c1cccnc1` (stereo unspecified), the cytotoxicity at 70.5 h worked out at 15.4%.
Regarding `Cn1cccc1C(=O)N1CCCCC12CC(=O)N(c1cccnc1)C2` (stereo unspecified), the cytotoxicity at 70.5 h was -3.4%.
The value for `COc1cccc(CN2CCC3(CCN(C(=O)C4CC=CC4)CC3)C2)c1` was -3.83%; that for `CC(=O)NCC(=O)N1CCn2cc(CN3CCCCC3)nc2C1` was -1.68%; that for `O=C(C1CC1)N1CCC2(CCN(Cc3cccc(F)c3)CC2)CC1` was -0.144%.
The value for `CC(=O)N1[C@H](Cn2cncn2)C[C@@H]2CN(c3ncc(F)cn3)CC[C@@H]21` was -0.528%.
Turning to `O=C([C@H]1COC[C@H]2CN(C3CCOCC3)C[C@H]21)N1CCCO1`, the cytotoxicity at 70.5 h was -1.26%.
As for `O=C(c1ccco1)N1CCCC2(CN(Cc3ccsc3)CCO2)C1` (stereo unspecified), the figure is -5.26%; as for `O=C(c1ccco1)N1CCCC2(CN(Cc3cccs3)CCO2)C1` (stereo unspecified), 1.5%; as for `COCC(=O)N1CCO[C@H]2[C@H](OCc3cccnc3)CC[C@@H]21`, 1.22%.
Take `CN1CCN(C(=O)NC2CCCC2)Cc2cccnc21`: the cytotoxicity at 70.5 h is -4.32%.
The value for `Cc1nc(CN2CCOCC3(CCCN(c4cnccn4)C3)C2)cs1` (stereo unspecified) was -2.38%; that for `O=C(NC[C@]12COC[C@H]1CN(Cc1nccs1)C2)N1CCCC1` was -13.4%; that for `O=C(C[C@@H]1COC[C@H]2CN(Cc3ccc(F)cc3)C[C@@H]12)N1CCCCO1` was -14.5%.
In the case of `COC1COC2(CCN(Cc3ccccc3Cl)CC2)C1` (stereo unspecified), the cytotoxicity at 70.5 h was -14.5%.
As for `O=C1CC[C@H]2[C@H](CCN2C(=O)C2CCOCC2)N1Cc1ccncc1`, the figure is -15.6%; as for `CNC(=O)[C@@]12CCCN(c3ncccn3)[C@@H]1CN(C)C2`, 29.8%.
As for `Cc1ncsc1CN1CC[C@H]2OCC[C@@]2(C(=O)NC(C)C)C1`, the figure is 33.4%; as for `Cc1ccc(C(=O)N2CCn3cc(CN4CCCCC4)nc3C2)o1`, 35.2%; as for `CNC(=O)[C@H]1C[C@H]2OCC[C@H]2N(Cc2ccc(C)o2)C1`, 3.85%.
The value for `Cc1nnc(N2C[C@H](C(=O)NCC3CC3)[C@@H]3CCO[C@@H]3C2)s1` was -4%; that for `CCOCC1CN(C(=O)c2cccn2C)Cc2cnn(CC3CC3)c21` (stereo unspecified) was 0.525%.
In the case of `O=C(c1ncccn1)N1C[C@H]2CCC[C@@]2(COCc2ccncc2)C1`, the cytotoxicity at 70.5 h was 9.21%.
With `Cn1cnc2c1C(COCC1CC1)CN(C(=O)Cc1ccsc1)C2` (stereo unspecified), the cytotoxicity at 70.5 h was -3.95%.
As for `CN(C)S(=O)(=O)N1C[C@@H](Oc2ccccn2)[C@H]2OCCC[C@H]21`, the figure is -7.76%; as for `Cn1nc(C#N)c2c1CN(C(=O)c1cccnc1)CCC2`, 29.4%.
On to `Cc1ccc(N2CC3(COCCN(Cc4nccs4)C3)OCC2=O)s1` (stereo unspecified), for which the cytotoxicity at 70.5 h was -10.7%.
For the compound `CCOC(=O)[C@]12CCCN(Cc3nccs3)C[C@H]1CN(C(C)=O)C2`, the cytotoxicity at 70.5 h is -13.3%.
Take `c1ccc(Cn2cc3c(n2)C(COCC2CC2)OCC3)nc1` (stereo unspecified): the cytotoxicity at 70.5 h is 8.53%.
As for `CN(C)S(=O)(=O)N1CCC[C@]2(C[C@@H](Oc3ccccn3)CO2)C1`, the figure is -17.2%; as for `c1cncc(COCc2nnc3n2CCN(CC2CC2)C3)c1`, 0.791%; as for `Cc1ncsc1CN1CCO[C@H]2[C@H](Oc3ccccn3)CC[C@@H]21`, -1.48%.
As for `Fc1cccnc1O[C@@H]1CC[C@H]2[C@H]1OCCN2Cc1nccs1`, the figure is -2.76%; as for `CN(C)[C@@H]1CCN(c2ncc(F)cn2)[C@H]1Cc1ccccc1`, -4.36%.
The value for `COCCC(=O)N1CCn2cc(CN3CCN(C)CC3)nc2C1` was 0.542%.
Regarding `Cc1cccc(CO[C@@H]2CC[C@H]3[C@H]2OCCN3Cc2nccs2)n1`, the cytotoxicity at 70.5 h was -0.937%.
For the compound `CN(C)[C@@H]1CCN(c2ncc(F)cn2)[C@H]1Cc1cccnc1`, the cytotoxicity at 70.5 h was 17.3%.
The value for `Cc1cnc(N2CC[C@H]3[C@@H]2CCC(=O)N3c2cccnc2)nc1` was -2.59%; that for `CC(C)N1CCOCC2(CN(Cc3nccs3)CCO2)C1` (stereo unspecified) was -0.368%.
The value for `c1ccc(CO[C@@H]2CO[C@@]3(CCN(Cc4ccccn4)C3)C2)nc1` was -16%; that for `CC(C)N1CCOCC2(CN(Cc3ccccn3)CCO2)C1` (stereo unspecified) was -2.31%.
